Values quoted from earlier work as cited in PMC9851200, “Multiparameter phenotypic screening for endogenous TFEB and TFE3 translocation identifies novel chemical series modulating lysosome function” (Autophagy, 2022).

Experiments:
Set-up in all cases: method as in original PKIS2 published data
[1] = molecular target: T1, kinases (KINOMEscan panel) (Homo sapiens, UniProt O00444); conditions: kinase PLK4; Published KINOMEscan; ref original PKIS2 published data; cited from earlier work
T1 sequence (O00444 1-970): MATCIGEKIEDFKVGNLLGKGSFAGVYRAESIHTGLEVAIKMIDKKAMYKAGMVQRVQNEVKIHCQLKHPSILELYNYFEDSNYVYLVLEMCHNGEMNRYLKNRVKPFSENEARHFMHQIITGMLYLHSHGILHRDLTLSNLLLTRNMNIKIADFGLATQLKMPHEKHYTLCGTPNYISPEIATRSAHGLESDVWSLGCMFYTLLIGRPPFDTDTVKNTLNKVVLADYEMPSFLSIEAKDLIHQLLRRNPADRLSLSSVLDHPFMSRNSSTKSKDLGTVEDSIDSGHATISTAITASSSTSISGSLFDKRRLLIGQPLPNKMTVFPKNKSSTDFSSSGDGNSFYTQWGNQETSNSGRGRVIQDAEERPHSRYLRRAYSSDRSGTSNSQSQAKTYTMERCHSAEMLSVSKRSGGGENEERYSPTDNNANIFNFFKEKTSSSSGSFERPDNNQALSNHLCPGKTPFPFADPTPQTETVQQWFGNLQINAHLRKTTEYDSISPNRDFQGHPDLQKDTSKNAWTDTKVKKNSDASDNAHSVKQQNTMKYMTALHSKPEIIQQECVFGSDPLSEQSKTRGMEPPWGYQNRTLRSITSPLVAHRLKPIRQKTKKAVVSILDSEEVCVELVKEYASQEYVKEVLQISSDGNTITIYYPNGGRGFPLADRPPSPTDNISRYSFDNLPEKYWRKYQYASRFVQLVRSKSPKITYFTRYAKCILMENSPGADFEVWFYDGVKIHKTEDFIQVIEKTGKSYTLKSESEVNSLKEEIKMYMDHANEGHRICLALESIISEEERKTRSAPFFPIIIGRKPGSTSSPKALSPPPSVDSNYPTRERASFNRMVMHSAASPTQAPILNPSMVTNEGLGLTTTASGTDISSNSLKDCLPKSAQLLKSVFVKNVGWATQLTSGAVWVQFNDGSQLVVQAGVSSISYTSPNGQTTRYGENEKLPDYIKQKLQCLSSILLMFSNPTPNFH

[2] = molecular target: kinases (KINOMEscan panel) (Homo sapiens, UniProt O00750); conditions: PIK3C2B; Published KINOMEscan; ref original PKIS2 published data; cited from earlier work
[3] = molecular target: T2, kinases (KINOMEscan panel) (Homo sapiens, UniProt O15146); conditions: MUSK; Published KINOMEscan; ref original PKIS2 published data; cited from earlier work
T2 sequence (O15146 24-869): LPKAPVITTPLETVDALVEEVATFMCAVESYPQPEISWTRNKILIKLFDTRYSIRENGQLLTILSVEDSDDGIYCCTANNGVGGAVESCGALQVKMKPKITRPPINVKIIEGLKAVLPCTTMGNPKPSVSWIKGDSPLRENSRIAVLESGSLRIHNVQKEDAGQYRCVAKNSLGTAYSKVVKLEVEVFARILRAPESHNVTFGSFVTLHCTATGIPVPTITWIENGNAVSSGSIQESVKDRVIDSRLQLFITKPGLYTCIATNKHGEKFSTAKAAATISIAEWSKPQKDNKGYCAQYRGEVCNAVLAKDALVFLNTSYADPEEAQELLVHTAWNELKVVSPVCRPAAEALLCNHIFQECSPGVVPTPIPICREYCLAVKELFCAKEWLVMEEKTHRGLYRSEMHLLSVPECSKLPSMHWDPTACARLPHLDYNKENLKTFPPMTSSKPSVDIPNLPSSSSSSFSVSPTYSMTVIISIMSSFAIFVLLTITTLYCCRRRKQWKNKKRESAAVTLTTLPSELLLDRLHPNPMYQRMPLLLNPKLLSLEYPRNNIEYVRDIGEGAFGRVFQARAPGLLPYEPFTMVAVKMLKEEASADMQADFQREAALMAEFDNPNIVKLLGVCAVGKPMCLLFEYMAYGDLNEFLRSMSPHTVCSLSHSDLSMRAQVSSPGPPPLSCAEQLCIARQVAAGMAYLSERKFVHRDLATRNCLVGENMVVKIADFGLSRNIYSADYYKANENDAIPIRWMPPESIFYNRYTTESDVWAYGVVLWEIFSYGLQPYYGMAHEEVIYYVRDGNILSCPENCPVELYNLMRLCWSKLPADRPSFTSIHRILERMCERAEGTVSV

[4] = molecular target: kinases (KINOMEscan panel) (Homo sapiens, UniProt P42336); conditions: kinase PIK3CA; Published KINOMEscan; ref original PKIS2 published data; cited from earlier work
[5] = molecular target: kinases (KINOMEscan panel) (Homo sapiens, UniProt Q8N5S9); conditions: CAMKK1; Published KINOMEscan; ref original PKIS2 published data; cited from earlier work
[6] = molecular target: kinases (KINOMEscan panel) (Homo sapiens, UniProt Q9H3Y6); conditions: Published KINOMEscan; ref original PKIS2 published data; cited from earlier work
Chain of kinases (KINOMEscan panel) (Homo sapiens, UniProt Q9H3Y6) (Q9H3Y6 whole entry): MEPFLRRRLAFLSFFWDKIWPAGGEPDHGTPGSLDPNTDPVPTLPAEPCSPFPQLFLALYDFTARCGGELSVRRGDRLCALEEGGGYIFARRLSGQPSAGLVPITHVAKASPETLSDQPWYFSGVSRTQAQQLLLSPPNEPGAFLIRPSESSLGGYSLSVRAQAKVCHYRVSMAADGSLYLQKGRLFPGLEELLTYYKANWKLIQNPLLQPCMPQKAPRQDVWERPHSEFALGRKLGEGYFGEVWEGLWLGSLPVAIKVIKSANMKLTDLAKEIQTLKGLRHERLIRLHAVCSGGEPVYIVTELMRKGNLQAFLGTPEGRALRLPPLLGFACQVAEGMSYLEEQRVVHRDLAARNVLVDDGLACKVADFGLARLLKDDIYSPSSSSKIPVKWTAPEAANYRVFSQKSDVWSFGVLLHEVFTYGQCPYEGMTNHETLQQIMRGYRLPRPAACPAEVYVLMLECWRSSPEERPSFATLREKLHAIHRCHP

Chain of kinases (KINOMEscan panel) (Homo sapiens, UniProt O00750) (O00750 whole entry): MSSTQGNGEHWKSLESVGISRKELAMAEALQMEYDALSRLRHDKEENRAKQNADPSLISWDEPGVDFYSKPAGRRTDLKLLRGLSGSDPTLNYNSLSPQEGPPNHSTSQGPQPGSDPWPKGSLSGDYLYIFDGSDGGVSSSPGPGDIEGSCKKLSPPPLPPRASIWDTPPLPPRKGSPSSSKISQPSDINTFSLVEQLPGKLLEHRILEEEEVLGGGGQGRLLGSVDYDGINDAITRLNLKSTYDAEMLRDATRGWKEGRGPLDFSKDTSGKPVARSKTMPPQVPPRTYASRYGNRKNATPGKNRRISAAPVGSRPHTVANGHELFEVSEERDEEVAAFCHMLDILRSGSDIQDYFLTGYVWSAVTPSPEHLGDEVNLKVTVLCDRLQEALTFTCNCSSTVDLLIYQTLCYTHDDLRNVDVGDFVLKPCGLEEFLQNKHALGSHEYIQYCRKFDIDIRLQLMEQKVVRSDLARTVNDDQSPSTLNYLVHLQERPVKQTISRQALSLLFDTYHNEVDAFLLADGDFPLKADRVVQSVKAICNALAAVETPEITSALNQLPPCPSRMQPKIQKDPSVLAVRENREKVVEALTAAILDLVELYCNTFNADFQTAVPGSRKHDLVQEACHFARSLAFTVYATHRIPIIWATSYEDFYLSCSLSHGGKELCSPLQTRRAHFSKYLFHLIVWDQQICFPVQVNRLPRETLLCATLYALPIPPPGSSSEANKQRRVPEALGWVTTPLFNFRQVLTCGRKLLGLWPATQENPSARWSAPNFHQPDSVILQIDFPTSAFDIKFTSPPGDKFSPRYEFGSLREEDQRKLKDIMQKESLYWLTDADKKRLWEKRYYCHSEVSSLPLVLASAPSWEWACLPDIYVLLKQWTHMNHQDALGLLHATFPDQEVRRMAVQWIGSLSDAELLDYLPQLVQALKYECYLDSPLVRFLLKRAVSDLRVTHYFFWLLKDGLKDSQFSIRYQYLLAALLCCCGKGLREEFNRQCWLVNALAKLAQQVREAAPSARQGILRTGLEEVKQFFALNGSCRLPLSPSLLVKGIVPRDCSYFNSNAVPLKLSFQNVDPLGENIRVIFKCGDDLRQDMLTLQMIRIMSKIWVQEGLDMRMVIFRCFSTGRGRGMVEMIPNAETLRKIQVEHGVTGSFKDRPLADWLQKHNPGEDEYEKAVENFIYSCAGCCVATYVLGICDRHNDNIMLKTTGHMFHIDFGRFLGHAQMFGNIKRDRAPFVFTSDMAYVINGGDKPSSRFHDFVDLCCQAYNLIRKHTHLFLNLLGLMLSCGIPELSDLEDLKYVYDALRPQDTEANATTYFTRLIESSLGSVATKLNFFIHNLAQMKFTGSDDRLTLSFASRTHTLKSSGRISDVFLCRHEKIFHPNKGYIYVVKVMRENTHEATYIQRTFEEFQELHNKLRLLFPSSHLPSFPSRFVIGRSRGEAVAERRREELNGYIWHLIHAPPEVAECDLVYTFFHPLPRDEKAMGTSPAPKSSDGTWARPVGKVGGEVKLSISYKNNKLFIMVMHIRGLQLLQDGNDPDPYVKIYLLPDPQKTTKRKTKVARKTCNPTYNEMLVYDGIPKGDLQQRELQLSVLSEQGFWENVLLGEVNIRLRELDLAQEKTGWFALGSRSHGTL
Chain of kinases (KINOMEscan panel) (Homo sapiens, UniProt Q8N5S9) (Q8N5S9 whole entry): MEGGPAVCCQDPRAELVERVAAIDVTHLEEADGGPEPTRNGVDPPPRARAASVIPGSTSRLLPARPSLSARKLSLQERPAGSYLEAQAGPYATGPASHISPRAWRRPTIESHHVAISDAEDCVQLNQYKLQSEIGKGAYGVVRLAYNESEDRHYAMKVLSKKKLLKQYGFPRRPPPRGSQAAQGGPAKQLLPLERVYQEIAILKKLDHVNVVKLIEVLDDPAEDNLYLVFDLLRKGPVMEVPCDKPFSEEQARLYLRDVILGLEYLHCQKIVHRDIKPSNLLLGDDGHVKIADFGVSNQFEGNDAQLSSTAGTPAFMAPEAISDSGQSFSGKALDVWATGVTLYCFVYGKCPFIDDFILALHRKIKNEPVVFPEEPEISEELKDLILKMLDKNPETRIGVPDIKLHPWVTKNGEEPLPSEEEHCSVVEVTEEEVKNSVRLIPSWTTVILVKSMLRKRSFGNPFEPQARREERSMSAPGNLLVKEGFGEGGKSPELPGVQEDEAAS
Chain of kinases (KINOMEscan panel) (Homo sapiens, UniProt P42336) (P42336 whole entry): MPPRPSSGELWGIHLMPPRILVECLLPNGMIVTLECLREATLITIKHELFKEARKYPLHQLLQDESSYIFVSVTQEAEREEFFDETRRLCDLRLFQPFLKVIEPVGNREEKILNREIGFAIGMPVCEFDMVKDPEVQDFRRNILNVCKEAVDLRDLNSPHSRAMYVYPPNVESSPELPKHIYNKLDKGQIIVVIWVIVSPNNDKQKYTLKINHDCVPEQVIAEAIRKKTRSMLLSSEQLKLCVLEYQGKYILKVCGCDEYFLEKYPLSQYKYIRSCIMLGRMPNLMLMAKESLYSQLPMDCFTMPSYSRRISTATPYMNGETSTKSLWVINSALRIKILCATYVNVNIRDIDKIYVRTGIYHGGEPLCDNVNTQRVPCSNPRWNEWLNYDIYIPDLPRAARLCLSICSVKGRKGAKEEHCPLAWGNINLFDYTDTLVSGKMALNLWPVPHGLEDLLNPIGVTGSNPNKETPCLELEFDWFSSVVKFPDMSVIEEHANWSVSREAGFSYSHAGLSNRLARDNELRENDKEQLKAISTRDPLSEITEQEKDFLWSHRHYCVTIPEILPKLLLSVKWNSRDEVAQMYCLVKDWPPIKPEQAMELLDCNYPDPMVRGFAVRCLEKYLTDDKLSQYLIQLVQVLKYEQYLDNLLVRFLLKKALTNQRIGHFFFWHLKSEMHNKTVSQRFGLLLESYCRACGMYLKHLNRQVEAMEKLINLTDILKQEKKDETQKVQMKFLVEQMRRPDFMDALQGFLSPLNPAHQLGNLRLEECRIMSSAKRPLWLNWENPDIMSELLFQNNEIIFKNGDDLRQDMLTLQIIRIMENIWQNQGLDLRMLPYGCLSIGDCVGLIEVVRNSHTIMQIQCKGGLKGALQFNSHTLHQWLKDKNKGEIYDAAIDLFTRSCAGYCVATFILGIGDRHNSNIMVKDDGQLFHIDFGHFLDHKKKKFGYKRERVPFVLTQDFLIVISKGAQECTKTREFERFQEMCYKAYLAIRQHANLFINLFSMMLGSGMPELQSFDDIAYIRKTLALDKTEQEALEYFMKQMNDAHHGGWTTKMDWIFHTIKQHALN

Question: What does the source list for `Cc1cccc(-c2nc(Nc3ccncc3)c3ccccc3n2)n1` [NK215]?
Answer: KINOMEscan PLK4 [1]: 0; KINOMEscan PIK3C2B [2]: 0; KINOMEscan MUSK [3]: 17; KINOMEscan PIK3CA [4]: 0; KINOMEscan CAMKK1 [5]: 24; KINOMEscan SRMS [6]: 0
